Experimental findings from US7816521B2, “1,2,4-benzotriazine-1,4-dioxides” (Auckland Uniservices Limited, priority 2004, dated 2010) are described below.

Data set [1] deals with HT29 multicellular layers. The class given is in vitro ADME. The note with it: human. The method, then:
A: Diagram of a Millicell® CM culture insert used for growing MCLs on a porous, collagen-coated Teflon membrane. B: H&E-stained transverse section of an HT-29 MCL three days after initiating growth with 10^6 cells. The Teflon membrane is ca 30 μm thick. C: Diffusion apparatus for measurement of transport through MCLs. D: Diffusion of TPZ (100 μM) through well oxygenated (open circles) and […] poorly oxygenated (filled circles) HT29 MCLs of equivalent thickness (141±5 μm). Concentrations are normalized to the initial concentration in the donor compartment (Co). The Lines are fits to a reaction-diffusion model. Also shown is the diffusion of compound #20 through a well oxygenated MCL of a similar thickness illustrating the effect of raising the diffusion coefficient from 4×10^−7 cm^2s^−1 to 1.4×10^−6 cm^2s^−1.
The diffusion coefficients in HT29 MCL (DMCL) of compounds representative of the invention were determined either by: • 1. Measurement of drug diffusion in HT29 MCL (grown in culture inserts and seeded at 1×10^6 cells per insert and grown for 3-4 days) in a 2 chamber diffusion apparatus containing culture medium with measurement from both the donor and receiver compartments and gassing at ≧20% O2 to suppress bioreductive metabolism as described in Hicks et al (Cancer Res. 2003, 63, 5970-5977). Samples of medium are taken at intervals, drug concentrations determined by HPLC or LCMS and the concentration-time profile was fitted to Fick's second law of diffusion and the differential equation was solved numerically to obtain the estimate of DMCL.
OR • 2. Calculated from the logistic regression equation
where • a. Log P7.4 is the base 10 logarithm of the octanol-water partition coefficient of the compound at pH 7.4 measured or calculated using the techniques described below • b. HD is the number of hydrogen bond donors (which is the sum of all NH— and OH-groups) • c. HA is the number of hydrogen bond acceptors (which is the sum of all N— and O-atoms) • d. Mr is the molecular weight of the non-ionised drug and a, g, d, a, x0, e, h, and b are regression coefficients as outlined in the table.
Values of the coefficient g are cell line dependent; this value has been determined as 0.3051 (SE 0.0427, CV 13.99%, p<0.001) for SiHa MCLs, and is set at zero for HT29 MCLs.

Data set [2] has as its system hypoxic cells in HT29 tumours. Nature of the data set: HT29 excision assay (drug after 20 Gy radiation, clonogenic survival). The class given is in vivo, human. As to conditions: for HT29 log kill: log10 kill of hypoxic cells in HT29 tumours, additional to radiation alone, MTD or 75% of MTD, Table 2. The source says:
In order to test the validity of this PK/PD model as a tool for predicting the antitumour activity of TPZ analogues, the inventors determined the key PK/PD parameters for 13 TPZ analogues, and TPZ itself, for the HT29 human colon carcinoma cell line. These parameters were then used to calculate the expected killing in hypoxic regions of HT29 tumours following a single intraperitoneal dose of the compounds at their maximum tolerated dose. The results of this calculation were then compared with measured killing of hypoxic cells in HT29 tumours, determined by administering the compounds immediately (within 5 min) after gamma irradiation (cobalt 60, 20 Gy) to sterilise oxygenated cells in the tumours. Tumours were removed 18 hours later and the number of surviving cells determined by clonogenic assay. The measured PK/PD parameters, model prediction (using the above 3D microvascular network), and experimentally determined hypoxic cell kill is shown in Table 1, and the relationship between predicted and measured cell kill in FIG. 4. The prediction is statistically highly significant (p=0.001, Fisher exact test). […] If the extravascular transport component was excluded from the model, the R^2 for this regression was only 0.28 and the relationship was not statistically significant.
Animals were treated with radiation alone (RAD, 20 Gy whole body); RAD+TPZ (316 μmol/kg); compound 3 (562 μmol/kg); RAD+compound 3 (562 μmol/kg). Tumours were excised 18 hr after treatment and clonogenic survival determined by staining colonies 14 days later. Each symbol represents a separate tumour. p<0.01 (one way ANOVA with Dunnett's test) for RAD+compound 3 and for RAD+TPZ versus RAD only. Horizontal lines are the historical means for untreated controls (upper line) and 20 Gy radiation only (lower line).
Compounds were evaluated with single dose radiation using s.c. HT29 tumors (average of two largest diameters 7-10 mm) grown by inoculating 10^7 cells (obtained by enzymatic dissociation of multicellular spheroids). Drugs were administered as single i.p. doses at their MTD with the following groups in each experiment. A: vehicle control, B: test drug, C: Radiation (20 Gy, cobalt-60, whole body irradiation), D: TPZ (316 μmol/kg) 5 min after radiation, E: Test drug 5 min after radiation. Each group included 3 (A, B) or 5 (C-E) mice. Tumors were excised 18 hr after treatment and plated to determine clonogenicity. Hypoxic cytotoxicity is determined by the difference in surviving fraction between groups C and E, while comparison of A and B evaluates oxic cell killing. Total yield of clonogens was used as the key parameter if cell yields were affected by treatment. Results of this assay are illustrated for compound 3 (and TPZ) in FIG. 5.

Data set [3] can be described thus: Solubility in culture medium. The format is physicochemical. The note with it: culture medium (αMEM with 5% foetal bovine serum), plasma or biological fluid, thermodynamic from solid; culture medium (αMEM, 5% foetal bovine serum), pH 7.4; no unit in table, threshold is 2 mM. Here is the method:
Solubility is determined in laboratory culture medium (alpha minimal essential medium (αMEM) with 5% foetal bovine serum) saturated with 5% carbon dioxide at pH 7.4, by addition of excess compound and sonication at ambient temperature for 15 minutes. Alternatively the compound is diluted from a concentrated stock solution in DMSO into culture medium to give a final DMSO concentration <1%. The mixture is centrifuged at 13,000 rpm for 6 minutes and the concentration of drug in the supernatant solution is then determined by HPLC using a standard reference solution in a suitable solvent.

Data set [4] concerns human colon carcinoma cell line HT-29. The experiment in a line: Proliferation assay (IC50) under aerobic and hypoxic conditions. As to conditions: for IC50: Homo sapiens, HT-29, HT29, anoxic, 4 hr exposure; for HCR: hypoxic cytotoxicity ratio: aerobic IC50 / hypoxic IC50, HT29. The class given is cell-based. Here is the method: Compounds representative of the invention were evaluated under both aerobic and hypoxic conditions in a proliferation assay (IC50) using the human colon carcinoma cell line HT-29 as previously described [Hay et al, J. Med. Chem, 2003, 46, 169]. For each experiment, compounds were simultaneously tested under both oxic and hypoxic conditions and included TPZ as an independent internal control at the front and back of the assay. In all cases, a 8-methyl-5-nitroquinoline derivative was used as a second internal control to confirm that strict hypoxia was present during the experiment [Siim et al., Br. J. Cancer 1994, 70, 596].

In brackets after ≈: the same amount, converted by molar mass.

On to `CN(CCCNC(=O)c1cccc2cc3ccccc3nc12)CCCNc1n[n+]([O-])c2ccccc2[n+]1[O-]` [L], for which the DMCL in data set [1] is recorded as 3.82 × 10^−7 cm^2s^−1. The compound further gave an HT29 log kill in data set [2] of −0.051. Further, the solubility in data set [3] turned out to be 0.45 mM (≈ 230 µg/mL). In data set [4], the midpoint of inhibition, the IC50, lay at 50 nM and the HCR is 154.0.

For the compound `Cc1ccc2c(c1)[n+]([O-])c(NCCCN(C)CCCNC(=O)c1cccc3cc4ccccc4nc13)n[n+]2[O-]` [N], the DMCL in data set [1] is 1.05 × 10^−7 cm^2s^−1. This compound also gave an HT29 log kill in data set [2] of 0.027. This compound also returned a solubility in data set [3] of 32.4 mM (≈ 17000 µg/mL). In addition, in data set [4], the half-maximal inhibitory concentration (IC50) was 225 nM and the HCR came to 134.0.

As for `Cc1ccc2c(c1)[n+]([O-])c(NCCN(C)C)n[n+]2[O-]` [H, N^1,N^1-Dimethyl-N^2-(6-methyl-1,4-dioxido-1,2,4-benzotriazin-3-yl)-1,2-ethanediamine], the DMCL in data set [1] is reported as 3.99 × 10^−7 cm^2s^−1. In data set [2], this compound gave an HT29 log kill of 1.001. The “activity against hypoxic cells in HT29 tumours” value in data set [2] (relative to radiation alone) is recorded as “significant activity”. In data set [3], this compound came in with a solubility of 52 mM (≈ 13700 µg/mL). In data set [4], the IC50 amounted to 1850 nM and the HCR is given as 159.0.

`Nc1n[n+]([O-])c2ccccc2[n+]1[O-]` [A, tirapazamine, reference compound]: the DMCL in data set [1] is listed as 3.97 × 10^−7 cm^2s^−1. Also, in data set [1] (100 μM), the diffusion coefficient is listed as 4×10^−7 cm^2s^−1 and the “reduction in diffusion in poorly oxygenated versus well oxygenated HT29 MCLs” value is 2 fold. For the same compound, the HT29 log kill in data set [2] is 1.17. This compound also yielded a solubility in data set [3] of 8.9 mM (≈ 1590 µg/mL).

For the compound `CCCN(CCC)CCNc1n[n+]([O-])c2ccccc2[n+]1[O-]` [G], the DMCL in data set [1] is on record as 1.71 × 10^−6 cm^2s^−1. Also, the HT29 log kill in data set [2] is on record as 0.248. In addition, in data set [3], the concentration in solution (solubility) was 26 mM (≈ 7940 µg/mL). In addition, in data set [4], 1650 nM corresponded to half-maximal inhibition (IC50) and the HCR is 81.6.

As for `Nc1n[n+]([O-])c2cc(Cl)ccc2[n+]1[O-]` [C, 7-Chloro-1,2,4-benzotriazin-3-amine 1,4-Dioxide], in data set [1], the DMCL is given as 8.70 × 10^−7 cm^2s^−1. Besides, the HT29 log kill in data set [2] is on record as −0.007. The compound further gave a solubility in data set [3] of 0.09 mM (≈ 19.1 µg/mL). Further, in data set [4], half-maximal inhibition (IC50) was put at 730 nM and the HCR is listed as 28.5.

For the compound `Cc1ccc2c(c1)[n+]([O-])nc(NCCN(C)C)[n+]2[O-]` [F, 7-Methyl-N-[2-(dimethylamino)ethyl]-1,2,4-benzotriazin-3-amine 1,4-Dioxide], the DMCL in data set [1] is 5.09 × 10^−7 cm^2s^−1. For the same compound, the HT29 log kill in data set [2] came to 0.196. The compound also returned a solubility in data set [3] of 38.7 mM (≈ 10200 µg/mL). For the same compound, in data set [4], the IC50 turned out to be 1080 nM and the HCR was 34.3.

For `COCCc1n[n+]([O-])c2ccccc2[n+]1[O-]` [J], the DMCL in data set [1] is 2.09 × 10^−6 cm^2s^−1. The same compound returned an HT29 log kill in data set [2] of 0.8. The same compound yielded a solubility in data set [3] of 21 mM (≈ 4650 µg/mL). In addition, in data set [4], the midpoint of inhibition, the IC50, lay at 3500 nM and the HCR turned out to be 49.4.

Consider `CN(CCCNC(=O)c1cccc2ccc(-c3ccncc3)nc12)CCCNc1n[n+]([O-])c2ccccc2[n+]1[O-]` [M], for which the DMCL in data set [1] is listed as 9.80 × 10^−8 cm^2s^−1. In addition, in data set [2], the HT29 log kill was 0.138. Moreover, in data set [3], the solubility was 3.8 mM (≈ 2050 µg/mL). Besides, in data set [4], half-maximal inhibition (IC50) was put at 125 nM and the HCR was found to be 119.0.

For the compound `Cc1ccc2c(c1)[n+]([O-])c(N)n[n+]2[O-]` [B, 6-Methyl-1,2,4-benzotriazin-3-amine 1,4-Dioxide], the DMCL in data set [1] was 5.43 × 10^−7 cm^2s^−1. In addition, the HT29 log kill in data set [2] was found to be 2.165. The same compound came in with a solubility in data set [3] of 3.02 mM (≈ 580 µg/mL). Further, in data set [4], 12900 nM corresponded to half-maximal inhibition (IC50) and the HCR was 35.8.

With `CCc1n[n+]([O-])c2ccccc2[n+]1[O-]` [I], the DMCL in data set [1] is on record as 2.61 × 10^−6 cm^2s^−1. The compound also registered an HT29 log kill in data set [2] of 0.886. In addition, the solubility in data set [3] amounted to 14.5 mM (≈ 2770 µg/mL). For the same compound, in data set [4], the IC50 was 6780 nM and the HCR is 54.2.

As to `CS(=O)(=O)c1ccc2c(c1)[n+]([O-])nc(N)[n+]2[O-]` [E, 7-(Methylsulfonyl)-1,2,4-benzotriazin-3-amine 1,4-Dioxide], in data set [1], the DMCL was 2.13 × 10^−7 cm^2s^−1. Besides, the HT29 log kill in data set [2] is reported as −0.028. The solubility in data set [3] was determined as 0.49 mM (≈ 126 µg/mL). In addition, in data set [4], half-maximal inhibition (IC50) required 9950 nM and the HCR stood at 12.0.

Regarding `[O-][n+]1nc(NCCCCCCNc2c3ccccc3nc3ccccc23)[n+]([O-])c2ccccc21` [K], in data set [1], the DMCL is recorded as 6.17 × 10^−7 cm^2s^−1. The compound further displayed an HT29 log kill in data set [2] of 0.009. Also, in data set [3], the concentration in solution (solubility) was 0.024 mM (≈ 10.9 µg/mL). In addition, in data set [4], the IC50 came out at 25 nM and the HCR is given as 31.8.

As to `Nc1n[n+]([O-])c2c(Cl)cccc2[n+]1[O-]` [D, 8-Chloro-1,2,4-benzotriazin-3-amine 1,4-Dioxide], the DMCL in data set [1] is 6.69 × 10^−7 cm^2s^−1. This compound also gave an HT29 log kill in data set [2] of −0.154. This compound returned a solubility in data set [3] of 2.22 mM (≈ 472 µg/mL). Moreover, in data set [4], the IC50 is 550 nM and the HCR is on record as 13.6.

What is called solubility is how much of the substance goes into solution per volume. The IC50 is the concentration at which inhibition is half-maximal. Lower therefore signals greater potency in that assay.
